Measured values taken from patent US20260193264A1, “BENZOYPARAZINE PYRAZINES AND THEIR USES” (FOGHORN THERAPEUTICS INC., priority 2022, published 2026).

How the values were obtained:
[1] = molecular target: T1, HiBiT-BRM fusion protein in stable HeLa cell line (Homo sapiens, UniProt P51531); test: HiBiT-BRM cell-based degradation assay (Nano-Glo HiBiT Lytic Detection, 24 h); parameters: DC50: scale not given here; details: HeLa HiBiT-BRM cells; for DC50: read-out: BRM HiBit Degradation IC50; for BRM HiBit Degradation Maximum (%): top dose 30 μM
T1 construct: expressed in transfected cells
T1 sequence (P51531 whole entry, the tested form may be a part): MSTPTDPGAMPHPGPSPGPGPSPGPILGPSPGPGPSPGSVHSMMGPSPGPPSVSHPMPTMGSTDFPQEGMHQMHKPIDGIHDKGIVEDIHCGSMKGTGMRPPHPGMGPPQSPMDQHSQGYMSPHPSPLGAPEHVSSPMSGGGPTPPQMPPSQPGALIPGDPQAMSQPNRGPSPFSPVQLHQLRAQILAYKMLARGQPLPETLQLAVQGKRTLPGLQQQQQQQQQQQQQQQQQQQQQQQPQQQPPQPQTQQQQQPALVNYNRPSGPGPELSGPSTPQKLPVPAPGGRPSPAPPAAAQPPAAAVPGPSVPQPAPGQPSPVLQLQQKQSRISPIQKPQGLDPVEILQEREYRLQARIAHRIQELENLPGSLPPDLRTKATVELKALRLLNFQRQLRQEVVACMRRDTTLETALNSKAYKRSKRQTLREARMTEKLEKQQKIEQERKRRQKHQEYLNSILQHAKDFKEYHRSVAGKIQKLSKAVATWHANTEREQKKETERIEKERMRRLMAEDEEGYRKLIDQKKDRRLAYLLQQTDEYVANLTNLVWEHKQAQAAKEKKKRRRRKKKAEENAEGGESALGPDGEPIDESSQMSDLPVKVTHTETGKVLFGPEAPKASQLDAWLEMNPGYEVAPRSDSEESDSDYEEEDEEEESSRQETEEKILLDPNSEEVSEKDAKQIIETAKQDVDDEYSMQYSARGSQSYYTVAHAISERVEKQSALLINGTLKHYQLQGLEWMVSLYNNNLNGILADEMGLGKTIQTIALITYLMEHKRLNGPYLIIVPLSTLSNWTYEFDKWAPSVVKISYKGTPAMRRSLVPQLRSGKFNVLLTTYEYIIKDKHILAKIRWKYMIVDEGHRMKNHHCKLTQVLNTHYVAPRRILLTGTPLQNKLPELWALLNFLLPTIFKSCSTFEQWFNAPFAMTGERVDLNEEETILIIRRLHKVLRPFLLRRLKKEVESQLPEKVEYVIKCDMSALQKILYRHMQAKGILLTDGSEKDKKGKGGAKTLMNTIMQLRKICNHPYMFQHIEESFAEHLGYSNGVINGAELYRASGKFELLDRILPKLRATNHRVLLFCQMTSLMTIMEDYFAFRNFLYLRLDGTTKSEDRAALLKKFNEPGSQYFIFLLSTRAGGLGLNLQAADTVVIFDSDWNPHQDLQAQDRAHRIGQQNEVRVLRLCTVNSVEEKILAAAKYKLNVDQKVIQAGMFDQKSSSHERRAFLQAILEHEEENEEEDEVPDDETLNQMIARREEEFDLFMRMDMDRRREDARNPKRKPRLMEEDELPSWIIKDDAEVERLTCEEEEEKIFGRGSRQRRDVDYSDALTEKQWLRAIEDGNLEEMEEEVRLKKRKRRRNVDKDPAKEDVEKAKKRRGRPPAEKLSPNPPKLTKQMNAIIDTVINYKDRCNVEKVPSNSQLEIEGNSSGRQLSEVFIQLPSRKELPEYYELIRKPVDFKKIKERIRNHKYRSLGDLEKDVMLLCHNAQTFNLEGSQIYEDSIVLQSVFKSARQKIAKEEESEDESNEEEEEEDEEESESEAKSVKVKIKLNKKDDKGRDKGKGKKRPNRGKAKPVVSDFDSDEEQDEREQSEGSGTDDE
Summary of the method: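 Luminescence from HiBiT/LgBiT complementation after lysis reports remaining HiBiT-BRM in stable HeLa cells exposed to compound for 24 h. Dosing used 3-fold serial dilutions, 10 points, 30 μM top final concentration. DMSO and a 2 μM BRM/BRG1 degrader standard defined 0% and 100% degradation.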

[2] = molecular target: T2, HiBit-BRG1 fusion protein in stable HeLa cell line expressing HiBit-BRG1 and LgBit (Homo sapiens, UniProt P51532); test: HiBiT-BRG1 cell-based degradation assay (Nano-Glo HiBiT, 24 h); details: HeLa HiBit-BRG1/LgBit cells; for DC50: read-out: BRMG1 HiBit Degradation IC50; for Dmax: top dose 30 μM, read-out: BRG1 HiBit Degradation Maximum (%)
T2 construct: expressed in transfected cells
T2 sequence (P51532 whole entry, the tested form may be a part): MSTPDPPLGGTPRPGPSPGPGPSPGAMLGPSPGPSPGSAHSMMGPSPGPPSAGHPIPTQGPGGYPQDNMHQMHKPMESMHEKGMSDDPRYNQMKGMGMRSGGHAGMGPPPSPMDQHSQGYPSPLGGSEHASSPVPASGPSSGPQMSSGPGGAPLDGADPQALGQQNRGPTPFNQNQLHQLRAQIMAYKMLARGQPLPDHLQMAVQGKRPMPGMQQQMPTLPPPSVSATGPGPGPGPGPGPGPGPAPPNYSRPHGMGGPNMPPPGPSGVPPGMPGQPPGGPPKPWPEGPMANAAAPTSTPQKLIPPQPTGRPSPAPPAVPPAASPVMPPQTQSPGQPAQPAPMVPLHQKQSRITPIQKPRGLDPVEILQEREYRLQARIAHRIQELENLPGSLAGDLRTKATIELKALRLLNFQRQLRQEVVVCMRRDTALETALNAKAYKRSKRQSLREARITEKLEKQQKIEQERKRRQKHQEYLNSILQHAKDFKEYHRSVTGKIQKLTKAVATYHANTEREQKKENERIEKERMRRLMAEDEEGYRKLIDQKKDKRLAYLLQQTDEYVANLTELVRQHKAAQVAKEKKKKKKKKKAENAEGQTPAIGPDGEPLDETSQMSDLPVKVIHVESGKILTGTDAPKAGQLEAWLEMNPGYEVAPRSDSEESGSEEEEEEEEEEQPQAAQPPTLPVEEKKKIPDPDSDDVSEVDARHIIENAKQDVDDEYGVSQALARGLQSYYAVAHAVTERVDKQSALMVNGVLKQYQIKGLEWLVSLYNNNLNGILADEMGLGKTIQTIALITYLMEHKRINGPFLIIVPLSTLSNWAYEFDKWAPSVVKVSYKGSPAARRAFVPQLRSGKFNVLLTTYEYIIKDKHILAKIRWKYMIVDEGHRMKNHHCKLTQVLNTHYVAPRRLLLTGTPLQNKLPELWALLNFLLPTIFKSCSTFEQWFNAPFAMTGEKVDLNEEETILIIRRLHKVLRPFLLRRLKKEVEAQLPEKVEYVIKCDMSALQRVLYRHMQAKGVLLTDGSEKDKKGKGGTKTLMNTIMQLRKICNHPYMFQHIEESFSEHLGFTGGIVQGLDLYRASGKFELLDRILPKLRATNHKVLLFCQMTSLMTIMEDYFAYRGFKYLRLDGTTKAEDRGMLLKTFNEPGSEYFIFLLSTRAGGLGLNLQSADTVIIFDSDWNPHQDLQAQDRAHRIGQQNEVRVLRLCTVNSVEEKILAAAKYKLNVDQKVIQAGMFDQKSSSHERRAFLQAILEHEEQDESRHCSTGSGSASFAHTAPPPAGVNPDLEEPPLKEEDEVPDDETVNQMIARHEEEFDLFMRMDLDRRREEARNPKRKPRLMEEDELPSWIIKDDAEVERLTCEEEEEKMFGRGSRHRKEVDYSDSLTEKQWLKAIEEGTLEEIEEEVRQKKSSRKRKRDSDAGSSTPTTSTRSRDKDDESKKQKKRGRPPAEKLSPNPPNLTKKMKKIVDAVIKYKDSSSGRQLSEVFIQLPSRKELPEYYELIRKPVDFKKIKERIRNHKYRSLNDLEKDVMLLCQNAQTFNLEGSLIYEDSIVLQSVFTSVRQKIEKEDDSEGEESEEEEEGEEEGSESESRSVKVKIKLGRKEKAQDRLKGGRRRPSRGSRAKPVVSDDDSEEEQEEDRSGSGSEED
Summary of the method: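 Stable HeLa line co-expressing HiBiT-BRG1 and LgBiT, compound-treated 24 h; luminescence read after Nano-Glo HiBiT lytic reagent. % degradation normalised between DMSO (high control) and 2 μM reference BRM/BRG1 degrader (low control).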

Row | SMILES | DC50 [1] | DC50 [2] | Dmax [2] | BRM HiBit Degradation Maximum (%) [1]
1 | Cc1cc2nnc(-c3ccccc3O)cc2cc1-c1cc([C@H](C(=O)N2C[C@H](O)C[C@H]2C(=O)N[C@@H](C)c2ccc(-c3scnc3C)cc2)C(C)C)on1 [Compound 149, (2S,4R)-4-hydroxy-1-((R)-2-(3-(3-(2-hydroxyphenyl)-7-methylcinnolin-6-yl)isoxazol-5-yl)-3-methylbutanoyl)-N-((S)-1-(4-(4-methylthiazol-5-yl)phenyl)ethyl)pyrrolidine-2-carboxamide] | < 10 nM | > 10 nM | > 50% | A (“A” indicates maximum degradation ≥75%)
2 | Cc1ncsc1-c1ccc([C@H](C)NC(=O)[C@@H]2C[C@@H](O)CN2C(=O)[C@H](C(C)C)n2cc(-c3ccc4nnc(-c5cccc(F)c5O)cc4c3)nn2)cc1 [Compound 150, (2S,4R)-1-((S)-2-(4-(3-(3-fluoro-2-hydroxyphenyl)cinnolin-6-yl)-1H-1,2,3-triazol-1-yl)-3-methylbutanoyl)-4-hydroxy-N-((S)-1-(4-(4-methylthiazol-5-yl)phenyl)ethyl)pyrrolidine-2-carboxamide] | < 10 nM | < 10 nM | > 75% | A (“A” indicates maximum degradation ≥75%)
3 | Cc1ncsc1-c1ccc([C@H](C)NC(=O)[C@@H]2C[C@@H](O)CN2C(=O)[C@@H](c2cc(N3CCN4CCN(c5ccc6nnc(-c7ccccc7O)cc6c5)CC4C3)no2)C(C)C)cc1 (stereo partly drawn) [Compound 151, (2S,4R)-4-hydroxy-1-((2R)-2-(3-(8-(3-(2-hydroxyphenyl)cinnolin-6-yl)octahydro-2H-pyrazino[1,2-a]pyrazin-2-yl)isoxazol-5-yl)-3-methylbutanoyl)-N-((S)-1-(4-(4-methylthiazol-5-yl)phenyl)ethyl)pyrrolidine-2-carboxamide] | < 10 nM |  | < 50% | A (“A” indicates maximum degradation ≥75%)
4 | CNC(=O)[C@@H]1C[C@@H](O)CN1C(=O)[C@@H](c1cc(N2CC3(CN(c4ccc5cc(-c6ccccc6O)nnc5c4)C3)C2)no1)C(C)C [Compound 156, (2S,4R)-4-hydroxy-1-((R)-2-(3-(6-(3-(2-hydroxyphenyl)cinnolin-7-yl)-2,6-diazaspiro[3.3]heptan-2-yl)isoxazol-5-yl)-3-methylbutanoyl)-N-methylpyrrolidine-2-carboxamide] | < 10 nM |  | < 50% | A (“A” indicates maximum degradation ≥75%)
5 | COc1cc2nnc(-c3ccccc3O)cc2cc1N1CC2(CN(c3cc([C@H](C(=O)N4C[C@H](O)C[C@H]4C(=O)N[C@@H](C)c4ccc(-c5scnc5C)cc4)C(C)C)on3)C2)C1 [Compound 158, (2S,4R)-4-hydroxy-1-((R)-2-(3-(6-(3-(2-hydroxyphenyl)-7-methoxycinnolin-6-yl)-2,6-diazaspiro[3.3]heptan-2-yl)isoxazol-5-yl)-3-methylbutanoyl)-N-((S)-1-(4-(4-methylthiazol-5-yl)phenyl)ethyl)pyrrolidine-2-carboxamide] | < 10 nM | < 10 nM | > 75% | A (“A” indicates maximum degradation ≥75%)
6 | COc1cc2cc(-c3ccccc3O)nnc2cc1N1CC2(CN(c3cc([C@H](C(=O)N4C[C@H](O)C[C@H]4C(=O)N[C@@H](C)c4ccc(-c5scnc5C)cc4)C(C)C)on3)C2)C1 [Compound 159, (2S,4R)-4-hydroxy-1-((R)-2-(3-(6-(3-(2-hydroxyphenyl)-6-methoxycinnolin-7-yl)-2,6-diazaspiro[3.3]heptan-2-yl)isoxazol-5-yl)-3-methylbutanoyl)-N-((S)-1-(4-(4-methylthiazol-5-yl)phenyl)ethyl)pyrrolidine-2-carboxamide] | < 10 nM | < 10 nM | > 75% | A (“A” indicates maximum degradation ≥75%)

More lines, main results first:

Row | DC50 [1] | DC50 [2] | Dmax [2] | SMILES | BRM HiBit Degradation Maximum (%) [1]
7 | < 10 nM | > 10 nM | > 75% | Cc1ncsc1-c1ccc([C@H](C)NC(=O)[C@@H]2C[C@@H](O)CN2C(=O)[C@@H](c2cc(N3CCOC4(CN(c5ccc6nnc(-c7ccccc7O)cc6c5)C4)C3)no2)C(C)C)cc1 [Compound 146, (2S,4R)-4-hydroxy-1-((R)-2-(3-(2-(3-(2-hydroxyphenyl)cinnolin-6-yl)-5-oxa-2,8-diazaspiro[3.5]nonan-8-yl)isoxazol-5-yl)-3-methylbutanoyl)-N-((S)-1-(4-(4-methylthiazol-5-yl)phenyl)ethyl)pyrrolidine-2-carboxamide] | A (“A” indicates maximum degradation ≥75%)
8 | < 10 nM | > 10 nM | > 75% | Cc1ncsc1-c1ccc([C@H](C)NC(=O)[C@@H]2C[C@@H](O)CN2C(=O)[C@@H](c2cc(N3CCOC4(CCN(c5ccc6nnc(-c7ccccc7O)cc6c5)CC4)C3)no2)C(C)C)cc1 [Compound 147, (2S,4R)-4-hydroxy-1-((R)-2-(3-(9-(3-(2-hydroxyphenyl)cinnolin-6-yl)-1-oxa-4,9-diazaspiro[5.5]undecan-4-yl)isoxazol-5-yl)-3-methylbutanoyl)-N-((S)-1-(4-(4-methylthiazol-5-yl)phenyl)ethyl)pyrrolidine-2-carboxamide] | A (“A” indicates maximum degradation ≥75%)
9 | < 10 nM | < 10 nM | > 75% | Cc1ncsc1-c1ccc([C@H](C)NC(=O)[C@@H]2C[C@@H](O)CN2C(=O)[C@@H](c2cc(N3CCOC4(CCN(c5ccc6cc(-c7ccccc7O)nnc6c5)CC4)C3)no2)C(C)C)cc1 [Compound 148, (2S,4R)-4-hydroxy-1-((R)-2-(3-(9-(3-(2-hydroxyphenyl)cinnolin-7-yl)-1-oxa-4,9-diazaspiro [5.5]undecan-4-yl)isoxazol-5-yl)-3-methylbutanoyl)-N-((S)-1-(4-(4-methylthiazol-5-yl)phenyl)ethyl)pyrrolidine-2-carboxamide] | A (“A” indicates maximum degradation ≥75%)
10 | < 10 nM | < 10 nM | > 75% | Cc1ncsc1-c1ccc([C@H](C)NC(=O)[C@@H]2C[C@@H](O)CN2C(=O)[C@@H](c2cc(N3CC4(C3)CN(c3cc5cc(-c6ccccc6O)nnc5cc3C3CC3)C4)no2)C(C)C)cc1 [Compound 152, (2S,4R)-1-((R)-2-(3-(6-(7-cyclopropyl-3-(2-hydroxyphenyl)cinnolin-6-yl)-2,6-diazaspiro[3.3]heptan-2-yl)isoxazol-5-yl)-3-methylbutanoyl)-4-hydroxy-N-((S)-1-(4-(4-methylthiazol-5-yl)phenyl)ethyl)pyrrolidine-2-carboxamide] | A (“A” indicates maximum degradation ≥75%)
11 | < 10 nM |  | < 50% | Cc1ncsc1-c1ccc([C@H](C)NC(=O)[C@@H]2C[C@@H](O)CN2C(=O)[C@@H](c2cc(N3CCC4(CC3)CN(c3ccc5cc(-c6ccccc6O)nnc5c3)CCN4C)no2)C(C)C)cc1 [Compound 153, (2S,4R)-4-hydroxy-1-((R)-2-(3-(4-(3-(2-hydroxyphenyl)cinnolin-7-yl)-1-methyl-1,4,9-triazaspiro[5.5]undecan-9-yl)isoxazol-5-yl)-3-methylbutanoyl)-N-((S)-1-(4-(4-methylthiazol-5-yl)phenyl)ethyl)pyrrolidine-2-carboxamide] | A (“A” indicates maximum degradation ≥75%)
12 | < 10 nM | < 10 nM | > 75% | Cc1ncsc1-c1ccc([C@H](C)NC(=O)[C@@H]2C[C@@H](O)CN2C(=O)[C@@H](c2cc(N3CCCC4(CN(c5ccc6cc(-c7ccccc7O)nnc6c5)C4)C3)no2)C(C)C)cc1 [Compound 154, (2S,4R)-4-hydroxy-1-((R)-2-(3-(2-(3-(2-hydroxyphenyl)cinnolin-7-yl)-2,6-diazaspiro [3.5]nonan-6-yl)isoxazol-5-yl)-3-methylbutanoyl)-N-((S)-1-(4-(4-methylthiazol-5-yl)phenyl)ethyl)pyrrolidine-2-carboxamide] | A (“A” indicates maximum degradation ≥75%)
13 | < 10 nM | < 10 nM | > 75% | Cc1ncsc1-c1ccc([C@H](C)NC(=O)[C@@H]2C[C@@H](O)CN2C(=O)[C@@H](c2cc(N3CCN4CCN(c5ccc6cc(-c7ccccc7O)nnc6c5)CC4C3)no2)C(C)C)cc1 (stereo partly drawn) [Compound 155, (2S,4R)-4-hydroxy-1-((2R)-2-(3-(8-(3-(2-hydroxyphenyl)cinnolin-7-yl)octahydro-2H-pyrazino[1,2-a]pyrazin-2-yl)isoxazol-5-yl)-3-methylbutanoyl)-N-((S)-1-(4-(4-methylthiazol-5-yl)phenyl)ethyl)pyrrolidine-2-carboxamide] | A (“A” indicates maximum degradation ≥75%)
14 | < 10 nM | < 10 nM | > 50% | Cc1ncsc1-c1ccc([C@H](C)NC(=O)[C@@H]2C[C@@H](O)CN2C(=O)[C@@H](c2cc(N3CC4(C3)CN(c3cc5nnc(-c6ccccc6O)cc5cc3Cl)C4)no2)C(C)C)cc1 [Compound 157, (2S,4R)-1-((R)-2-(3-(6-(6-chloro-3-(2-hydroxyphenyl)cinnolin-7-yl)-2,6-diazaspiro[3.3]heptan-2-yl)isoxazol-5-yl)-3-methylbutanoyl)-4-hydroxy-N-((S)-1-(4-(4-methylthiazol-5-yl)phenyl)ethyl)pyrrolidine-2-carboxamide] | A (“A” indicates maximum degradation ≥75%)
